In the supplement of paper PMC11451515:

Tested on: P12-Ichikawa
Assay: cell viability relative to DMSO control; higher = less cytotoxic
Settings: 48 h
In short: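 Leukemia cells (NOMO1 or SEM, 500 cells/well; P12-Ichikawa, 1000 cells/well) were seeded in 5 μl in 1536-well plates after at least four passages of adaptation to each medium. They received library compounds in DMSO by pin dosing, 11 threefold points from 47 μM to 0.79 nM. Luminescence with CellTiter-Glo One was read after 48 h at 37°C. Viability is stated per plate relative to DMSO wells, with cell-free wells as background.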

[1] = HPLM + 10% dialyzed FBS, 0.000781 µM
[2] = HPLM + 10% dialyzed FBS, 0.00234 µM
[3] = HPLM + 10% dialyzed FBS, 0.00702 µM
[4] = HPLM + 10% dialyzed FBS, 0.0211 µM
[5] = HPLM + 10% dialyzed FBS, 0.0632 µM
[6] = HPLM + 10% dialyzed FBS, 0.19 µM
[7] = HPLM + 10% dialyzed FBS, 0.569 µM
[8] = HPLM + 10% dialyzed FBS, 1.71 µM
[9] = HPLM + 10% dialyzed FBS, 5.12 µM
[10] = HPLM + 10% dialyzed FBS, 15.4 µM
[11] = HPLM + 10% dialyzed FBS, 46.1 µM
[12] = RPMI 5 mM glucose + 10% FBS, 0.000781 µM
[13] = RPMI 5 mM glucose + 10% FBS, 0.00234 µM
[14] = RPMI 5 mM glucose + 10% FBS, 0.00702 µM
[15] = RPMI 5 mM glucose + 10% FBS, 0.0211 µM
[16] = RPMI 5 mM glucose + 10% FBS, 0.0632 µM
[17] = RPMI 5 mM glucose + 10% FBS, 0.19 µM
[18] = RPMI 5 mM glucose + 10% FBS, 0.569 µM
[19] = RPMI 5 mM glucose + 10% FBS, 1.71 µM
[20] = RPMI 5 mM glucose + 10% FBS, 5.12 µM
[21] = RPMI 5 mM glucose + 10% FBS, 15.4 µM
[22] = RPMI 5 mM glucose + 10% FBS, 46.1 µM
[23] = RPMI 5 mM glucose + 10% dialyzed FBS, 0.000781 µM
[24] = RPMI 5 mM glucose + 10% dialyzed FBS, 0.00234 µM
[25] = RPMI 5 mM glucose + 10% dialyzed FBS, 0.00702 µM
[26] = RPMI 5 mM glucose + 10% dialyzed FBS, 0.0211 µM
[27] = RPMI 5 mM glucose + 10% dialyzed FBS, 0.0632 µM
[28] = RPMI 5 mM glucose + 10% dialyzed FBS, 0.19 µM
[29] = RPMI 5 mM glucose + 10% dialyzed FBS, 0.569 µM
[30] = RPMI 5 mM glucose + 10% dialyzed FBS, 1.71 µM
[31] = RPMI 5 mM glucose + 10% dialyzed FBS, 5.12 µM
[32] = RPMI 5 mM glucose + 10% dialyzed FBS, 15.4 µM
[33] = RPMI 5 mM glucose + 10% dialyzed FBS, 46.1 µM

Row | SMILES | cell viability [1] [%] | cell viability [2] [%] | cell viability [3] [%] | cell viability [4] [%] | cell viability [5] [%] | cell viability [6] [%] | cell viability [7] [%] | cell viability [8] [%] | cell viability [9] [%] | cell viability [10] [%] | cell viability [11] [%] | cell viability [12] [%] | cell viability [13] [%] | cell viability [14] [%] | cell viability [15] [%] | cell viability [16] [%] | cell viability [17] [%] | cell viability [18] [%] | cell viability [19] [%] | cell viability [20] [%] | cell viability [21] [%] | cell viability [22] [%] | cell viability [23] [%] | cell viability [24] [%] | cell viability [25] [%] | cell viability [26] [%] | cell viability [27] [%] | cell viability [28] [%] | cell viability [29] [%] | cell viability [30] [%] | cell viability [31] [%] | cell viability [32] [%] | cell viability [33] [%]
1 | OC(=O)\C1=C\N(C2=CC=C(F)C=C2)C3=C(C=C(F)C(=C3)N4CCNCC4)C1=O | 121 | 116 | 112 | 124 | 124 | 117 | 114 | 115 | 108 | 103 | 91 | 126 | 118 | 118 | 120 | 117 | 113 | 112 | 121 | 117 | 99.1 | 92.1 | 119 | 111 | 115 | 115 | 104 | 114 | 111 | 102 | 108 | 91.5 | 87.2
2 | COc1cc(Nc2ncc(F)c(Nc3ccc4c(n3)NC(=O)C(C)(C)O4)n2)cc(OC)c1OC | 107 | 112 | 120 | 114 | 122 | 118 | 129 | 101 | 44.8 | 4.38 | 4.34 | 114 | 107 | 126 | 112 | 119 | 126 | 113 | 114 | 62.3 | 5.34 | 5.36 | 110 | 122 | 113 | 122 | 121 | 121 | 137 | 112 | 62.4 | 5.87 | 5.61
3 | C\C1=C\C(=O)C2=C(C=CC=C2)C1=O | 108 | 104 | 118 | 125 | 128 | 120 | 127 | 125 | 122 | 116 | 123 | 107 | 119 | 109 | 130 | 125 | 118 | 125 | 135 | 134 | 139 | 131 | 119 | 122 | 121 | 130 | 127 | 137 | 128 | 118 | 120 | 131 | 128
4 | CCN(CC)C(=S)SSC(=S)N(CC)CC | 104 | 106 | 118 | 120 | 117 | 109 | 119 | 122 | 4.64 | 10.4 | 9.15 | 103 | 98.6 | 112 | 122 | 119 | 115 | 115 | 116 | 4.29 | 5.91 | 4.43 | 104 | 105 | 116 | 115 | 115 | 112 | 108 | 115 | 4 | 3.98 | 3.13
5 | O=C(NC[C@H]1CN(c2ccc(N3CCOCC3=O)cc2)C(=O)O1)c1ccc(Cl)s1 | 104 | 111 | 112 | 115 | 113 | 119 | 122 | 114 | 16 | 13.4 | 12.4 | – | – | – | – | – | – | – | – | – | – | – | 103 | 119 | 115 | 125 | 126 | 123 | 134 | 132 | 51.1 | 37.8 | 19.3
6 | COc1cc(O)c2c(c1)C1OC1C[C@H](O)[C@H](O)C(=O)/C=C\C[C@H](C)OC2=O (some centres undefined) | 99.6 | 112 | 114 | 110 | 110 | 120 | 112 | 112 | 112 | 81.5 | 11.3 | 113 | 112 | 118 | 110 | 115 | 114 | 116 | 125 | 117 | 80.5 | 13.5 | 96.5 | 117 | 116 | 118 | 114 | 135 | 124 | 123 | 132 | 85.1 | 14.3
7 | O=C(Nc1cccc(Nc2ncc(Br)c(NCCc3cnc[nH]3)n2)c1)N1CCCC1 | – | – | – | – | – | – | – | – | – | – | – | 98 | 103 | 110 | 90.7 | 88.1 | 79.7 | 34.5 | 15.2 | 18.8 | 33.5 | 3.48 | 111 | 104 | 107 | 103 | 99.5 | 92.6 | 95.1 | 20.3 | 27.2 | 34.6 | 9.06
